Assay results from the NIST ThermoML archive (doi:10.1021/acs.jced.6b00893).
± gives the expanded uncertainty stated by the source.

Conditions: Liquid, Ebulliometric method (Recirculating still)

C=CCO [2-propenol]
vapor or sublimation pressure (369.75 K): 101.3 ± 0.5 kPa

c1ccccc1 [benzene]
vapor or sublimation pressure (353.25 K): 101.3 ± 0.5 kPa

O [water]
vapor or sublimation pressure (373.15 K): 101.3 ± 0.5 kPa
